Laboratory results as given in US20240092761A1, “QUINAZOLINE COMPOUNDS AND METHODS OF USE” (IAMBIC THERAPEUTICS, INC., priority 2022, published 2024).

Columns and labels:
CDK4/Cyclin D1 = CDK4/Cyclin D1 (Homo sapiens (Human), UniProt P11802); assay: CDK4/Cyclin D1 CHEF Assay (AQT0258 peptide); type: biochemical; conditions: 200 uM ATP, read-out: CDK4/ CyclinD1 AQT IC50
Method in brief: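 CDK4/Cyclin D1 (2.5 nM) phosphorylating 10 uM Sox-labelled peptide AQT0258 with 200 uM ATP (Km 195.2 uM), 10 mM MgCl2, 2% DMSO, 54 mM HEPES pH 7.5. Enzyme and inhibitor pre-incubated 30 min, reaction 3 hrs at 22° C.; CHEF fluorescence (ex 360/em 485 nm), IC50 from fractional velocity, 4-parameter fit.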

CDK6/Cyclin D3 = CDK6/Cyclin D3 (Homo sapiens (Human), UniProt Q00534); assay: CDK6/Cyclin D3 ADP-Glo Kinase Assay; type: biochemical; conditions: 100 uM ATP, read-out: CDK6/ CyclinD3 IC50
Method in brief: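 Recombinant human CDK6/Cyclin D3 pre-incubated 30 min with inhibitor at room temperature, then reaction started with ATP/substrate and run 90 min at room temperature. ADP formed detected by ADP-Glo luminescence; IC50 from a 4-parameter fit of fractional velocity versus inhibitor concentration.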

MCF-7 cells = assay: Cell Growth Inhibition, MCF-7 (CellTiterGlo, 6 days); type: cell-based; conditions: Homo sapiens, MCF7, 144 h; MCF-7, 6-day treatment, CellTiterGlo 2.0
Method in brief: (§1)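 MCF-7 and OVCAR-3 cells (RPMI, 10% FBS) were seeded at 500 cells/well onto compound, typically 10–10,000 nM in half-log dilutions. Growth proceeded 6 days at 37 °C, then CellTiterGlo luminescence was read. % inhibition was taken versus control, and IC50 came from a four-parameter variable-slope fit.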

CDK1/Cyclin B1 = CDK1/Cyclin B1 (Homo sapiens (Human), UniProt P06493); assay: CDK1/Cyclin B1 ADP-Glo Kinase Assay; type: biochemical; conditions: 80 uM ATP
Method in brief: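 CDK1/cyclin B1 (4.917 nM) preincubated 30 min with inhibitor (2% DMSO), then 80 µM ATP (Km 78.6 µM) and 0.75 µM substrate added; 90 min, room temperature, pH 7.5. ADP measured by ADP-Glo luminescence; IC50 from 4-parameter fit.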

[1] = target: CDK2/Cyclin E1 full length (Homo sapiens (Human), UniProt P24941); assay: CDK2/Cyclin E1 Full Length ADP-Glo Kinase Assay; type: biochemical; conditions: 20 uM ATP, read-out: CDK2/ CyclinE1 IC50
Method in brief: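 Full-length human CDK2/Cyclin E1 (0.328 nM) pre-incubated 30 min with inhibitor at RT, then reacted 90 min at RT with 20 uM ATP (Km 64.78 uM) and 0.75 uM substrate in pH 7.5 HEPES, 2% DMSO. ADP measured by ADP-Glo luminescence; IC50 from 4-parameter fit of fractional velocity.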

OVCAR-3 cells = assay: Cell Growth Inhibition, OVCAR-3 (CellTiterGlo, 6 days); type: cell-based; conditions: Homo sapiens, 144 h; OVCAR-3, 6-day treatment, CellTiterGlo 2.0
Method in brief: as §1

Sequence of CDK6/Cyclin D3 (Q00534 whole entry): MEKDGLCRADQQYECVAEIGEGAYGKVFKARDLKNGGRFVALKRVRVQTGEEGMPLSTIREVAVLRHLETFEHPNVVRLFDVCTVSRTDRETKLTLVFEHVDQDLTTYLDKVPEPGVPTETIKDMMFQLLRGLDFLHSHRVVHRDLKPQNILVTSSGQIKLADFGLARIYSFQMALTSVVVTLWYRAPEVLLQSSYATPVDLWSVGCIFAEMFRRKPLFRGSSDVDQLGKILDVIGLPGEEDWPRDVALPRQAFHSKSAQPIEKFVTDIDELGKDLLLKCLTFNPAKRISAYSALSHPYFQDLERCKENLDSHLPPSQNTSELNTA
Sequence of CDK6/Cyclin D3 (P30281 whole entry partner): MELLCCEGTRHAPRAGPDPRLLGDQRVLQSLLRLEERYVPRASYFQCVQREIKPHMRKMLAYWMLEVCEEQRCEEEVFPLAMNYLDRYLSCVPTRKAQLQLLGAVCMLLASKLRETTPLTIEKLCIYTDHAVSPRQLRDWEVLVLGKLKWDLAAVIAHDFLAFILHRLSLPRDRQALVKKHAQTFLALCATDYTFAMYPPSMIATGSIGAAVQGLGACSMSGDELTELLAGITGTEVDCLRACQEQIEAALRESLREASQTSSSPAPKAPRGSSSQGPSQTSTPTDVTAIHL
Sequence of CDK1/Cyclin B1 (P06493 whole entry): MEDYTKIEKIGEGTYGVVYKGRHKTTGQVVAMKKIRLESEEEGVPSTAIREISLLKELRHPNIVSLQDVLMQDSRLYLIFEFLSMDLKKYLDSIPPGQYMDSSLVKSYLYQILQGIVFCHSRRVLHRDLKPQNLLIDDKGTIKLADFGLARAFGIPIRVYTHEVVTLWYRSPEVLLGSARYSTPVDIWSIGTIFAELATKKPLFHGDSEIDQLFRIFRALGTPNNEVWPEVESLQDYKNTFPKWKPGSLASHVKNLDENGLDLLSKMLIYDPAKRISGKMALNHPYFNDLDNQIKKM
Sequence of CDK1/Cyclin B1 (P14635 whole entry partner): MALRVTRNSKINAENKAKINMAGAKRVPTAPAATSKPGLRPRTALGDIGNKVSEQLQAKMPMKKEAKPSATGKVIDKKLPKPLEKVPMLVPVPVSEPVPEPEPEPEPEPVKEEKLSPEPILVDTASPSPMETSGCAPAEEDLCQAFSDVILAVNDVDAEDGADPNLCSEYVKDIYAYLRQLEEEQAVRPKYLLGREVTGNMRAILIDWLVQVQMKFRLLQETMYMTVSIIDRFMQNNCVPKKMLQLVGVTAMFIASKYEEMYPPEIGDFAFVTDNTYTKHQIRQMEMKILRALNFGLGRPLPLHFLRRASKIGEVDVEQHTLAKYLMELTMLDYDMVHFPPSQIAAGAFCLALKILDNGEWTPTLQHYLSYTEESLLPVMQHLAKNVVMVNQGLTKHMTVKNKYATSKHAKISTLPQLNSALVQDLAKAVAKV
Sequence of CDK4/Cyclin D1 (P11802 whole entry): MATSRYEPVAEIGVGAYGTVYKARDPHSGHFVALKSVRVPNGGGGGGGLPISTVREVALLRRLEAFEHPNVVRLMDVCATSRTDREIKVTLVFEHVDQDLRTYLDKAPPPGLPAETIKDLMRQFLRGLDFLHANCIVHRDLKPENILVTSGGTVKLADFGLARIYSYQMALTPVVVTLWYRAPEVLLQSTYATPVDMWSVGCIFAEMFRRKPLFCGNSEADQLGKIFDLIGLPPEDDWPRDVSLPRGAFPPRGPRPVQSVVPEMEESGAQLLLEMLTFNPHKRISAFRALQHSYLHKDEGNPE
Sequence of CDK4/Cyclin D1 (P24385 whole entry partner): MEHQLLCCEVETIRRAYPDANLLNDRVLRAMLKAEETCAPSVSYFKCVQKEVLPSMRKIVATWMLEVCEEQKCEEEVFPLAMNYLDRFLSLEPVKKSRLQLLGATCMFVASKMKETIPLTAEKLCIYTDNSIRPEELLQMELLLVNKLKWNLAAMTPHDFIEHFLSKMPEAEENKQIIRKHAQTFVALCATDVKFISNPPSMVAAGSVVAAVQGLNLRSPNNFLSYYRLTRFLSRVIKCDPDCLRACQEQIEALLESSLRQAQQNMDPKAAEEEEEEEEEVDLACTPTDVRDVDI

| Compound | IC50 (CDK4/Cyclin D1) [nM] | IC50 (CDK6/Cyclin D3) [nM] | IC50 (MCF-7 cells) [nM] | IC50 (CDK1/Cyclin B1) [nM] | IC50 [1] [nM] | IC50 (OVCAR-3 cells) [nM] |
| --- | --- | --- | --- | --- | --- | --- |
| CN1CC2(CCN(c3cc(C(F)F)cc4cnc(NC5CCN(S(=O)(=O)C6CC6)CC5)nc34)C2)C1 [Example 77, N-(1-(cyclopropylsulfonyl)piperidin-4-yl)-6-(difluoromethyl)-8-(2-methyl-2,6-diazaspiro[3.4]octan-6-yl)quinazolin-2-amine] | < 200 | < 200 | 200 to 500 | < 200 | < 200 | 500 to 2000 |
| O=S(=O)(C1CC1)N1CCC(Nc2ncc3cc(C(F)F)cc(N4CC5(C4)CN(C4CC4)C5)c3n2)CC1 [Example 78, 8-(6-cyclopropyl-2,6-diazaspiro[3.3]heptan-2-yl)-N-(1-(cyclopropylsulfonyl)piperidin-4-yl)-6-(difluoromethyl)quinazolin-2-amine] | < 200 | < 200 | 500 to 2000 | 200 to 500 | < 200 | > 2000 |
| CN1CCc2cc(Nc3ncc4cc(C(F)F)cc(N5CC6(C5)CN(C5CC5)C6)c4n3)ccc2C1 [Example 79, 8-(6-cyclopropyl-2,6-diazaspiro[3.3]heptan-2-yl)-6-(difluoromethyl)-N-(2-methyl-1,2,3,4-tetrahydroisoquinolin-6-yl)quinazolin-2-amine] | < 200 | < 200 | 500 to 2000 | > 2000 | 200 to 500 | 500 to 2000 |
| O=S(=O)(C1CC1)N1CCC(Nc2ncc3cc(C(F)F)cc(N4CC5(CCCNC5)C4)c3n2)CC1 [Example 80, N-(1-(cyclopropylsulfonyl)piperidin-4-yl)-6-(difluoromethyl)-8-(2,6-diazaspiro[3.5]nonan-2-yl)quinazolin-2-amine] | < 200 | < 200 | 200 to 500 | < 200 | < 200 | 200 to 500 |
| CN1CCC2(C1)CN(c1cc(C(F)F)cc3cnc(NC4CCN(S(=O)(=O)C5CC5)CC4)nc13)C2 [Example 81, N-(1-(cyclopropylsulfonyl)piperidin-4-yl)-6-(difluoromethyl)-8-(6-methyl-2,6-diazaspiro[3.4]octan-2-yl)quinazolin-2-amine] | < 200 | < 200 | 500 to 2000 | 200 to 500 | < 200 | 500 to 2000 |
| FC(F)c1cc(N2CC3(CCNC3)C2)c2nc(Nc3ccc4c(c3)CN(C3CC3)C4)ncc2c1 [Example 82, N-(2-cyclopropylisoindolin-5-yl)-6-(difluoromethyl)-8-(2,6-diazaspiro[3.4]octan-2-yl)quinazolin-2-amine] | < 200 | < 200 | 500 to 2000 | 500 to 2000 | < 200 | > 2000 |
| CN1CC2(CCN(c3cc(C(F)F)cc4cnc(NC5CCN(S(=O)(=O)C6(C)CC6)CC5)nc34)C2)C1 [Example 83, 6-(difluoromethyl)-8-(2-methyl-2,6-diazaspiro[3.4]octan-6-yl)-N-(1-((1-methylcyclopropyl)sulfonyl)piperidin-4-yl)quinazolin-2-amine] | < 200 | < 200 | 500 to 2000 | 200 to 500 | < 200 | 500 to 2000 |
| O=S(=O)(CC1CCC1)N1CCC(Nc2ncc3cc(C(F)F)cc(N4CCC5(CNC5)C4)c3n2)CC1 [Example 84, N-(1-((cyclobutylmethyl)sulfonyl)piperidin-4-yl)-6-(difluoromethyl)-8-(2,6-diazaspiro[3.4]octan-6-yl)quinazolin-2-amine] | < 200 | < 200 | 500 to 2000 | 200 to 500 | < 200 | 500 to 2000 |
| O=S(=O)(CC1CC1)N1CCC(Nc2ncc3cc(C(F)F)cc(N4CC5(CCNC5)C4)c3n2)CC1 [Example 85, N-(1-((cyclopropylmethyl)sulfonyl)piperidin-4-yl)-6-(difluoromethyl)-8-(2,6-diazaspiro[3.4]octan-2-yl)quinazolin-2-amine] | < 200 | < 200 | 200 to 500 | < 200 | < 200 | 200 to 500 |
| O=S(=O)(CC1CCC1)N1CCC(Nc2ncc3cc(C(F)F)cc(N4CC5(CCNC5)C4)c3n2)CC1 [Example 86, N-(1-((cyclobutylmethyl)sulfonyl)piperidin-4-yl)-6-(difluoromethyl)-8-(2,6-diazaspiro[3.4]octan-2-yl)quinazolin-2-amine] | < 200 | < 200 | 500 to 2000 | < 200 | < 200 | 500 to 2000 |
| CC1(S(=O)(=O)N2CCC(Nc3ncc4cc(C(F)F)cc(N5CC6(CCNC6)C5)c4n3)CC2)CC1 [Example 87, 6-(difluoromethyl)-N-(1-((1-methylcyclopropyl)sulfonyl)piperidin-4-yl)-8-(2,6-diazaspiro[3.4]octan-2-yl)quinazolin-2-amine] | < 200 | < 200 | 500 to 2000 | < 200 | < 200 | 200 to 500 |
| O=S(=O)(N1CCC(Nc2ncc3cc(C(F)F)cc(N4CCC5(CNC5)C4)c3n2)CC1)C1(C(F)F)CC1 [Example 88, 6-(difluoromethyl)-N-(1-((1-(difluoromethyl)cyclopropyl)sulfonyl)piperidin-4-yl)-8-(2,6-diazaspiro[3.4]octan-6-yl)quinazolin-2-amine] | < 200 | < 200 | 200 to 500 | < 200 | < 200 | 200 to 500 |
| COCCN1CC2(CC(c3cc(C(F)F)cc4cnc(NC5CCN(S(C)(=O)=O)CC5)nc34)C2)C1 [Example 89, 6-(difluoromethyl)-8-(2-(2-methoxyethyl)-2-azaspiro[3.3]heptan-6-yl)-N-(1-(methylsulfonyl)piperidin-4-yl)quinazolin-2-amine] | < 200 | < 200 | 200 to 500 | < 200 | < 200 | < 200 |
| O=S(=O)(C1CC1)N1CCC(Nc2ncc3cc(C(F)F)cc(C4CC5(C4)CN(CC(F)F)C5)c3n2)CC1 [Example 90, N-(1-(cyclopropylsulfonyl)piperidin-4-yl)-8-(2-(2,2-difluoroethyl)-2-azaspiro[3.3]heptan-6-yl)-6-(difluoromethyl)quinazolin-2-amine] | < 200 | < 200 | 500 to 2000 | < 200 | < 200 | 200 to 500 |
| O=S(=O)(N1CCC(Nc2ncc3cc(C(F)F)cc(C4CC5(CCNC5)C4)c3n2)CC1)C1(C(F)F)CC1 (stereo not drawn) [Example 91, 6-(difluoromethyl)-N-(1-((1-(difluoromethyl)cyclopropyl)sulfonyl)piperidin-4-yl)-8-(6-azaspiro[3.4]octan-2-yl)quinazolin-2-amine] | < 200 | < 200 | 200 to 500 | < 200 | < 200 | < 200 |
| CS(=O)(=O)N1CCC(Nc2ncc3cc(C(F)F)cc(N4CC(F)(F)C5(CNC5)C4)c3n2)CC1 [Example 92, 8-(8,8-difluoro-2,6-diazaspiro[3.4]octan-6-yl)-6-(difluoromethyl)-N-(1-(methylsulfonyl)piperidin-4-yl)quinazolin-2-amine] | < 200 | < 200 | 500 to 2000 | < 200 | < 200 | 500 to 2000 |
| O=S(=O)(N1CCC(Nc2ncc3cc(C(F)F)cc(N4CC5(CCNC5)C4)c3n2)CC1)C1(C(F)F)CC1 [Example 93, 6-(difluoromethyl)-N-(1-((1-(difluoromethyl)cyclopropyl)sulfonyl)piperidin-4-yl)-8-(2,6-diazaspiro[3.4]octan-2-yl)quinazolin-2-amine] | < 200 | < 200 | 200 to 500 | < 200 | < 200 | < 200 |
| CS(=O)(=O)N1CCC(Nc2ncc3cc(C(F)F)cc(N4CC5(CCNCC5(F)F)C4)c3n2)CC1 [Example 94, 8-(5,5-difluoro-2,7-diazaspiro[3.5]nonan-2-yl)-6-(difluoromethyl)-N-(1-(methylsulfonyl)piperidin-4-yl)quinazolin-2-amine] | < 200 | < 200 | 500 to 2000 | < 200 | < 200 | 500 to 2000 |
